From PubChem BioAssay (NCI)
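A five-concentration, 48-hour dose response in 96-well plates underlies each endpoint, interpolated linearly between surrounding concentrations. GI50 marks 50% less growth. The concentration for full growth arrest is given as TGI.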

Columns and labels:
Test in all cases: growth of human tumour cells (NCI), 48 h
[1] = tested on: 786-0 renal
[2] = tested on: HCT-116 colon
[3] = tested on: IGROV1 ovarian
[4] = tested on: LOX IMVI melanoma
[5] = tested on: M14 melanoma
[6] = tested on: MDA-MB-231 breast
[7] = tested on: NCI-H460 lung
[8] = tested on: SF-539 CNS
[9] = tested on: SR leukemia
[10] = tested on: UACC-62 melanoma

SMILES | GI50 [1] | TGI [1] | GI50 [2] | TGI [2] | GI50 [3] | TGI [3] | GI50 [4] | TGI [4] | GI50 [5] | GI50 [6] | TGI [6] | GI50 [7] | TGI [7] | GI50 [8] | TGI [8] | GI50 [9] | TGI [9] | GI50 [10] | TGI [10] | TGI [5]
COc1ccc(/C=C/C(=O)c2cc3c(N)c(C(=O)Nc4ccc(OC)cc4)sc3nc2C)cc1 | 0.353 µM | > 50 µM | 0.0634 µM | 17.5 µM | 0.551 µM | > 50 µM | 1.06 µM | 11.3 µM | 0.19 µM | 1.28 µM | 22 µM | 0.155 µM | 0.484 µM | 0.327 µM | 1.54 µM | 0.889 µM | > 50 µM | 0.161 µM | > 50 µM | 
CCOC1Oc2ccc(C)cc2C(=O)/C1=C\Nc1ccc(S(N)(=O)=O)cc1 (centres undefined) | 6.88 µM | 13.6 µM | 6.62 µM | 14.9 µM | 15 µM | > 50 µM | 13.7 µM | > 50 µM | 9.32 µM | 11.7 µM | 35.5 µM | 17 µM | > 50 µM | 7.49 µM | 24.2 µM | 9.23 µM | > 50 µM | 12.5 µM | 38.2 µM | 21.5 µM
Cc1ccc(OC(=O)N2C/C(=C\c3ccccc3)C(=O)/C(=C/c3ccccc3)C2)cc1 |  | 35.9 µM |  | 5.28 µM |  | > 95.5 µM |  | 9.71 µM |  |  | 70.2 µM |  | > 100 µM |  | 66.2 µM |  | 13.2 µM |  | 59 µM | 21.6 µM
COc1ccc2c(c1)C(=O)c1c-2c(OCCN(C)C)nc2cc(OC)c(OC)cc12 | 13 µM | 27.2 µM | 1.08 µM | 19.6 µM |  |  | 1.01 µM | 12.3 µM | 18.5 µM | 10.1 µM | 22.1 µM | 1.22 µM | 15.3 µM | 10.6 µM | 24.9 µM | 1.22 µM | 14.4 µM | 51.5 µM | > 100 µM | 61.6 µM
C[C@@H]1CCc2ncc(F)cc2[C@H]2CCCN2c2ccn3ncc(c3n2)C(=O)N1 | 63 µM | > 100 µM | > 100 µM | > 100 µM | 34.6 µM | > 100 µM | 33.1 µM | > 100 µM | > 100 µM | 29.9 µM | > 100 µM | > 100 µM | > 100 µM | 54.6 µM | > 100 µM | 4.38 µM | > 100 µM | 69.5 µM | > 100 µM | > 100 µM
CC1(C)C2CCC13C(=O)C1OC3(C2)C2C(=O)c3c(ccc4c3ccc3ccccc34)C(=O)C12 (centres undefined) | > 36.3 µM | > 70.3 µM | > 36.9 µM | > 57 µM | > 100 µM | > 100 µM | 50.9 µM | > 100 µM | > 100 µM | > 37.2 µM | > 53.2 µM | 57.3 µM | > 100 µM | > 64.4 µM | > 100 µM | 1.86 µM | 51 µM | > 100 µM | > 100 µM | > 100 µM
CC(O)[C@H](NC(=O)N[C@@H](CC(N)=O)c1nc(N2CCNCC2)no1)C(=O)O (some centres undefined) | > 100 µM | > 100 µM | > 100 µM | > 100 µM | > 100 µM | > 100 µM | > 100 µM | > 100 µM | > 100 µM | > 100 µM | > 100 µM | > 100 µM | > 100 µM | > 100 µM | > 100 µM | > 100 µM | > 100 µM | > 100 µM | > 100 µM | > 100 µM
COCC(C(=O)OC1C/C=C/C=C/C(=O)OC(C(C)C(O)C(C)CCC(OC(=O)C(C)N(C)C)C(C)C(OC(C)=O)C(C)/C=C/N(C)C=O)C/C=C/C(OC)CC(C)C/C=C(\C)C(OC)CCC(C)C(O)C1C)N(C)C (centres undefined) | < 0.0001 µM | 0.000845 µM | < 0.0001 µM | 0.00687 µM | < 0.0001 µM | 0.0144 µM | < 0.0001 µM | 0.00377 µM | < 0.0001 µM | < 0.0001 µM | 0.00136 µM | < 0.0001 µM | 0.00436 µM | < 0.0001 µM | < 0.0001 µM | < 0.0001 µM | 0.00341 µM | < 0.0001 µM | 0.000461 µM | 0.00697 µM
COc1cc2cc(Oc3cccc(NC(=O)Nc4cc(C(F)(F)F)cc(C(F)(F)F)c4)c3)c(C)nc2cc1OC | 1.61 µM | 3.09 µM | 0.589 µM | 1.92 µM | 0.509 µM | 2.3 µM | 1.44 µM | 2.96 µM | 1 µM | 1.08 µM | 2.49 µM | 0.96 µM | 2.72 µM | 1.45 µM | 3.21 µM | 1.62 µM | 5.97 µM | 0.561 µM | 2.09 µM | 2.88 µM
COc1cccc(-c2nc3sccn3c2-c2ccnc(NCCCNS(=O)(=O)c3ccccc3)c2)c1 | 6.03 µM | > 100 µM | 3.32 µM | > 100 µM | 3.14 µM | > 100 µM | 3.12 µM | > 100 µM | 3.36 µM | 3.48 µM | > 100 µM | 3.35 µM | > 100 µM | 5.43 µM | > 100 µM | 3.57 µM | 92.6 µM | 1.98 µM | 5.08 µM | > 100 µM
COc1ccc(-c2csc(Nc3cccc(-c4csc(C)n4)c3)n2)cc1 | 2.14 µM | > 34.8 µM | 1.8 µM | > 50 µM | 0.697 µM | > 41.6 µM | 0.389 µM | 11.8 µM | 2.79 µM | 0.824 µM | 4.52 µM | 0.354 µM | > 19.3 µM | 1.57 µM | 8.27 µM | 0.0878 µM | 0.27 µM | 0.249 µM | 7.61 µM | 14.2 µM
COc1ccc(C2NC(=S)NC3=C2CCOc2c3ccc3ccccc23)cc1 (centres undefined) | > 100 µM | > 100 µM |  |  | > 100 µM | > 100 µM | > 100 µM | > 100 µM | > 100 µM | 98.9 µM | > 100 µM | 7.88 µM | > 100 µM |  |  | 7.27 µM | > 100 µM | 21.2 µM | > 100 µM | > 100 µM
COc1ccc(C2=Nn3c(nnc3-n3nc(C)cc3C)SC2)cc1 | 0.146 µM | > 100 µM | 0.0554 µM | > 100 µM | 0.107 µM | > 100 µM | 0.0694 µM | > 100 µM | 0.0626 µM | 0.177 µM | > 100 µM | 0.0518 µM | > 100 µM | 0.023 µM | 0.0594 µM | 0.0242 µM | > 100 µM | 0.0462 µM | > 100 µM | > 100 µM
CCOC(=O)c1c(CN2CCN(C)CC2)nc2ccc(Cl)cc2c1-c1ccccc1 | 7.05 µM | 18.8 µM | 6.51 µM | 19.1 µM | 7.14 µM | 19.9 µM | 4.52 µM | 16.1 µM | 1.91 µM | 7.16 µM | 21.2 µM | 3.9 µM | 13 µM | 8.72 µM | 21 µM | 1.93 µM | 4.78 µM | 2.35 µM | 7.76 µM | 3.78 µM
O=c1cccc(Cl)[nH]1 |  | > 100 µM |  | > 100 µM |  | > 100 µM |  | > 100 µM |  |  | > 100 µM |  | > 100 µM |  | > 100 µM |  | > 100 µM |  | > 100 µM | > 100 µM
COc1ccc2c(c1OC)O/C(=C\c1ncc([N+](=O)[O-])n1C)C2=O | 1.95 µM | 5.17 µM | 0.455 µM | 3.68 µM | 1.36 µM | 9.46 µM | 0.482 µM | 2.04 µM | 0.591 µM | 1.37 µM | 5.32 µM | 0.925 µM | 4.83 µM | 3.1 µM | 10.2 µM | 0.103 µM |  | 1.49 µM | 3.36 µM | 2.52 µM
CCCCCC[C@H]1C(=O)O[C@H](C)[C@H](NC(=O)c2cccc(NC=O)c2OC)C(=O)O[C@@H](C)[C@@H]1OC(=O)CCC (tested in a mixture with another compound) | 13.1 µM | 27.1 µM | 9.89 µM | 24.3 µM |  |  | 8.67 µM | 23.8 µM | 16 µM | 13.5 µM | 34.2 µM | 4.89 µM | 25.5 µM | 15.5 µM | 33.3 µM | 3.64 µM | 18.8 µM | 6.54 µM | 21.2 µM | 38.3 µM
CSC1=Nc2c(c(C)c(-c3ccccc3)n2COC(CO)CO)C2=NC(=O)CC(C)N12 (centres undefined) | > 100 µM | > 100 µM | > 100 µM | > 100 µM | > 100 µM | > 100 µM | > 100 µM | > 100 µM |  | > 100 µM | > 100 µM | > 100 µM | > 100 µM | > 100 µM | > 100 µM | > 100 µM | > 100 µM | > 100 µM | > 100 µM | 
Cc1cc(NN=C(c2ccc(O)cc2)c2ccc(O)cc2)c([N+](=O)[O-])cc1[N+](=O)[O-] | 5.39 µM | 22.1 µM | 3.73 µM | 35.7 µM |  |  | 3.8 µM | 21.2 µM | 4.5 µM | 4.7 µM | 20.7 µM | 2.62 µM | 8.57 µM |  |  | 5.55 µM | 50.2 µM | 4.77 µM | 19.3 µM | 21.1 µM
